These results are taken from patent US11312706B2, “Cyclohexyl acid pyrazole azines as LPA antagonists” (BRISTOL-MYERS SQUIBB COMPANY, priority 2017, dated 2022).

For this assay, the target named is T1, human LPA1 (Homo sapiens, UniProt Q92633).
T1 construct: expressed in transfected cells; host or cells: Chinese hamster ovary (CHO) cells
The experiment in a line: LPA1 functional antagonist assay (LPA-induced calcium flux). It counts as cell-based. The conditions noted are these: CHO cells overexpressing human LPA1, 10 nM LPA, read-out: hLPA1 IC50. The procedure:
The effectiveness of compounds of the present invention as LPA1 inhibitors can be determined in an LPA1 functional antagonist assay as follows:
Chinese hamster ovary cells overexpressing human LPA1 were plated overnight (15,000 cells/well) in poly-D-lysine coated 384-well microplates (Greiner bio-one, Cat #781946) in DMEM/F12 medium (Gibco, Cat #11039). Following overnight culture, cells were loaded with calcium indicator dye (AAT Bioquest Inc, Cat #34601) for 30 minutes at 37° C. The cells were then equilibrated to room temperature for 30 minutes before the assay. Test compounds solubilized in DMSO were transferred to 384 well non-binding surface plates (Corning, Cat #3575) using the Labcyte Echo acoustic dispense and diluted with assay buffer [1×HBSS with calcium/magnesium (Gibco Cat #14025-092), 20 mM HEPES (Gibco Cat #15630-080) and 0.1% fatty acid free BSA (Sigma Cat #A9205)] to a final concentration of 0.5% DMSO. Diluted compounds were added to the cells by FDSS6000 (Hamamatsu) at final concentrations ranging from 0.08 nM to 5 μM. and were then incubated for 20 min at room temperature at which time LPA (Avanti Polar Lipids Cat #857130C) was added at final concentrations of 10 nM to stimulate the cells. The compound IC50 value was defined as the concentration of test compound which inhibited 50% of the calcium flux induced by LPA alone. IC50 values were determined by fitting data to a 4-parameter logistic equation (GraphPad Prism, San Diego Calif.).

T1 sequence (Q92633 whole entry): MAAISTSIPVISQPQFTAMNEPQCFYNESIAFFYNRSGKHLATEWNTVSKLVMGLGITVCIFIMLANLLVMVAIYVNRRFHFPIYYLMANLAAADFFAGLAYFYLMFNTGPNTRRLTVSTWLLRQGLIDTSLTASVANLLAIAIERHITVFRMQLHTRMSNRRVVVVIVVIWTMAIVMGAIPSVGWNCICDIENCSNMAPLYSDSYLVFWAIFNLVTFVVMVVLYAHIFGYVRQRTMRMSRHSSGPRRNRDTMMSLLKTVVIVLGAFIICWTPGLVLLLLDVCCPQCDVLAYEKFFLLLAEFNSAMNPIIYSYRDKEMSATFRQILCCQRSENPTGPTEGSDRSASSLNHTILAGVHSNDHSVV

What is called IC50 is the point on the concentration scale where inhibition reaches its midpoint. For `COCCCOc1ccnc(NCc2c(-c3ncc(O[C@H]4CCC[C@H](C(=O)O)C4)c(C)n3)cnn2C)n1` [Example 36, (1S,3S)-3-((2-(5-(((4-(3-methoxypropoxy)pyrimidin-2-yl)amino)methyl)-1-methyl-1H-pyrazol-4-yl)-4-methylpyrimidin-5-yl)oxy)cyclohexane-1-carboxylic acid], the 50% inhibitory concentration (IC50) worked out at 27 nM.

On to `COCCOc1ccnc(NCc2c(-c3ncc(O[C@H]4CCC[C@H](C(=O)O)C4)c(C)n3)cnn2C)n1` [Example 34, (1S,3S)-3-((2-(5-(((4-(2-methoxyethoxy)pyrimidin-2-yl)amino)methyl)-1-methyl-lH-pyrazol-4-yl)-4-methylpyrimidin-5-yl)oxy)cyclohexane-1-carboxylic acid], for which the IC50 amounted to 78 nM.

Regarding `Cc1nc(-c2cnn(C)c2CNc2nccc(-c3ccccc3)n2)ncc1O[C@H]1CCC[C@H](C(=O)O)C1` [Example 13, (1S,3S)-3-((4-methyl-2-(1-methyl-5-(((4-phenylpyrimidin-2-yl)amino)methyl)-1H-pyrazol-4-yl)pyrimidin-5-yl)oxy)cyclohexanecarboxylic acid], the IC50 is 33 nM.

For `Cc1nc(-c2cnn(C)c2CNc2nccc(OCCCF)n2)ncc1O[C@H]1CCC[C@H](C(=O)O)C1` [Example 41, (1S,3S)-3-((2-(5-(((4-(3-fluoropropoxy)pyrimidin-2-yl)amino)methyl)-1-methyl-1H-pyrazol-4-yl)-4-methylpyrimidin-5-yl)oxy)cyclohexane-1-carboxylic acid], the half-inhibitory concentration (IC50) was 7.1 nM.

“(1S,3S)-3-((2-(5-(((4-(2-fluoro-phenyl)pyrimidin-2-yl)amino) methyl)-1-methyl-1H-1,2,3-triazol-4-yl)-4-methylpyrimidin-5-yl)oxy)cyclohexanecarboxylic acid [Example 14]”: the IC50 turned out to be 22 nM.

`CCc1nc(-c2cnn(C)c2CNc2nccc(OC3CC3)n2)ncc1O[C@H]1CCC[C@H](C(=O)O)C1` [Example 22, (1S,3S)-3-((2-(5-(((4-cyclopropoxy-pyrimidin-2-yl)amino)methyl)-1-methyl-1H-pyrazol-4-yl)-4-ethylpyrimidin-5-yl)oxy)cyclohexane-1-carboxylic acid]: the concentration for half-maximal inhibition (IC50) turned out to be 7 nM.

On to `Cn1ncc(-c2ccc(O[C@H]3CCC[C@H](C(=O)O)C3)cn2)c1CNc1nccc(-c2ccccc2)n1` (relative stereo) [Example 1, Trans-3-((6-(1-methyl-5-(((4-phenylpyrimidin-2-yl)amino)methyl)-1H-pyrazol-4-yl)pyridin-3-yl)oxy)cyclohexane-1-carboxylic acid], for which the half-maximal inhibitory concentration (IC50) is 122 nM.

With `Cc1nc(-c2cnn(C)c2CNc2nccc(OCC(F)(F)C(F)F)n2)ncc1O[C@H]1CCC[C@H](C(=O)O)C1` [Example 39, (1S,3S)-3((4-methyl-2-(1-methyl-5-(((4-(2,2,3,3-tetrafluoropropoxy)pyrimidin-2-yl)amino)methyl)-1H-pyrazol-4-yl)pyrimidin-5-yl)oxy)cyclohexane-1-carboxylic acid], the IC50 worked out at 6.2 nM.

Consider `CCOc1ccnc(NCc2c(-c3ncc(O[C@H]4CCC[C@H](C(=O)O)C4)cn3)cnn2C)n1` [Example 28, (1S,3S)-3-((2-(5-(((4-ethoxypyrimidin-2-yl)amino)methyl)-1-methyl-1H-pyrazol-4-yl)pyrimidin-5-yl)oxy)cyclohexane-1-carboxylic acid], for which the half-maximal inhibitory concentration (IC50) came to 23 nM.

Consider `Cc1nc(-c2cnn(C)c2CNc2nccc(OCC(C)(F)F)n2)ncc1O[C@H]1CCC[C@H](C(=O)O)C1` [Example 8, (1S,3S)-3-((2-(5-(((4-(2,2-difluoro-propoxy)pyrimidin-2-yl)amino)methyl)-1-methyl-1H-pyrazol-4-yl)-4-methylpyrimidin-5-yl)oxy)cyclo-hexane-1-carboxylic acid], for which the IC50 was 33 nM.

For `Cc1nc(-c2cnn(C)c2CNc2nccc(OCC(F)(F)F)n2)ncc1O[C@H]1CCC[C@H](C(=O)O)C1` [Example 16, (1S,3S)-3-((4-methyl-2-(1-methyl-5-(((4-(2,2,2-trifluoroethoxy)pyrimidin-2-yl)amino)methyl)-1H-pyrazol-4-yl)pyrimidin-5-yl)oxy)cyclohexane-1-carboxylic acid], the IC50 came out at 12 nM.
